Here are results for five sequences from patent US20030095979A1, “Pharmaceutical preparations comprising modified peptides” (Cistem Biotechnologies GMBH, priority 2001, published 2003).

What all share (parameters): species or system mice (C57BL/6)
For test [1], the system named is SIINFEKL specific IFN-γ-producing T cells. Description: Example 1: mice vaccinated subcutaneously in the flank 3 times, splenocytes activated ex vivo with SIINFEKL, IFN-γ ELISpot assay. The conditions noted are these: for peptide specific T cells induced: without adding poly-L-arginine, 100 μg peptide s.c. flank days 0, 21, 28, spleen one week after third vaccination. How it is done:
Groups of 4 mice (C75BL/6, femal, 8 weeks of age, H-2^b were injected subcutaneoulsy in the flank 3 times (days 0, 21 and 28) as follows (dose 100 μg of peptide, molarity adapted; +/−100 μg poly-L-arginine per mouse):
One week after the third vaccination spleens were removed and the splenocytes were activated ex vivo with peptide SIINFEKL (“245”) to determine IFN-y-producing specific cells (ELISpot assay).

Test [2] deals with specific IFN-γ-producing T cells. Briefly: Example 2: mice vaccinated subcutaneously in the footpad 3 times, lymph node cells and splenocytes activated ex vivo with SIINFEKL, IFN-γ ELISpot assay. Particulars: in combination with 100 μg poly-L-arginine; 100 μg peptide s.c. footpad days 0, 14, 28; one week after 3rd vaccination. How it is done:
Groups of 4 mice (C57BL/6, female, 6 weeks of age, II-2^b) were injected subcutaneously in the footpad 3 times (days 0, 14, 28) as follows (dose 100 ug of peptide, molarity adapted; +100 μg poly-L-arginine per mouse):
Groups of 4 mice were vaccinated subcutaneously in the footpad 3 times as indicated. One week after the 3rd vaccination, popliteal lymph nodes and spleens were removed and lymph node cells and splenocytes were activated ex vivo with peptide SIINFEKL (“245”) to determine IFN-y-producing specific cells (ELISpot assay).

Test [3] has as its system SIINFEKL-specific IFN-γ-producing T cells. Briefly: Example 3: mice vaccinated subcutaneously in the hind footpads, spleen cells restimulated ex vivo, IFN-γ ELISpot assay. The conditions noted are these: in combination with 100 μg poly-L-arginine; 100 μg peptide s.c. hind footpads; spleen 7 days after vaccination. The protocol:
Groups of 4 mice (C57BL/6, female, 8 weeks of age, H-2^b) were injected subcutaneously into the hind footpads as follows (dose 100 μg of peptide, molarity adapted; +100 μg poly-L-arginine per mouse):
Groups of 4 mice were vaccinated subcutaneously in the hind footpads as indicated. 7 days after the vaccination single cell suspensions of spleens were prepared and cells were restimulated ex vivo to detect IFN-γ-producing cells via ELISpot assay.

For the sequence “SIINFEKL [ovalbumin derived class I H-2Kb restricted peptide, unmodified wild type, reference compound]”, the “induction of T cells (general statement)” value in test [1] (alone or in combination with an adjuvant like poly-L-arginine) is “weak inducer of T cells”. For “FIFIFISIINFEKL [SIINFEKL with FIFIFI added at the N-terminus]”, the “peptide specific T cells induced” value in test [1] was “about 100 per 1 million spleen cells”. Take “EDEDSIINFEKL [SIINFEKL with EDED added at the N-terminus]”: in test [2], the “induction of specific IFN-γ-producing T cells in the draining (popliteal) lymph node (local response)” value is given as “high amount” and the “induction of specific IFN-γ-producing T cells in the spleen (systemic response)” value is recorded as “high amount”. “SIINFEKLFIFI [SIINFEKL with FIFI added at the C-terminus]”: in test [3], the “induction of SIINFEKL-specific IFN-γ-producing T cells” value is reported as “high numbers”. As for “FIFISIINFEKL [SIINFEKL with FIFI added at the N-terminus]”, in test [1], the “peptide specific T cells induced” value was “about 100 per 1 million spleen cells”. Further, the “induction of SIINFEKL-specific IFN-γ-producing T cells” value in test [3] is listed as “high numbers”.
